Source: patent US9273043B2, “TRPV1 antagonists including dihydroxy substituent and uses thereof” (Purdue Pharma L.P., priority 2011, dated 2016)
≈ marks a conversion by molar mass, not a printed value. Read-outs that look alike come from different tables or passages of the source.

Columns and labels:
[1] = Aqueous solubility at pH 1.2 and pH 6.8; format: physicochemical; conditions: aqueous solution
[2] = target: T1, human TRPV1 (Homo sapiens (Human), UniProt Q8NER1); experiment: Capsaicin-based assay, Protocol 2, TRPV1/CHO cells (hCAP-CHO), Fluo-4 FLIPR; format: cell-based; conditions: 100 nM capsaicin, mean ± SEM
Excerpt: The TRPV1/CHO cell line was generated as described below. […] The resulting PCR products were purified from agarose gels using Gel Band Purification Kit (GE Healthcare Bioscience) and were subcloned into pCR-Blunt vector (Invitrogen). The cloned cDNA was fully sequenced using a fluorescent dye-terminator reagent (BigDye Terminator ver3.1 Cycle Sequencing Kit, Applied Biosystems) and ABI Prism 3100 genetic analyzer (Applied Biosystems). The pCR-Blunt vector containing the hTRPV1 cDNA was subjected to restriction digestion with EcoR1. The restriction fragment was subcloned into expression vector pcDNA3.1(-) (Invitrogen) and named pcDNA3.1(-)-hVR1 plasmid. The sequence of the cDNA encoding TRPV1 is available at GenBank accession number AJ277028. […] The cells were transfected with the pcDNA3.1(-)-hVR1 plasmid using FuGENE6 (Roche) according to the manufacturer's protocol. 24 hr after transfection, neomycin-resistant cells were selected using 1 mg/mL G418 (Nacalai Tesque). […] The cells expressing hTRPV1 were cultured in the growth medium supplemented with 1 mg/mL G418. […] Capsaicin-based Assay: […] Subsequently, the cells were loaded by incubation in 0.1 mL of wash buffer containing Fluo-4 at 3 μM final concentration. After 1 hour, the cells were washed twice with 0.2 mL wash buffer and resuspended in 0.1 mL wash buffer. The plates were then transferred to a Fluorescence Imaging Plate Reader (Molecular Devices). Fluorescence intensity was monitored for 15 seconds to establish a baseline. […] The final concentration of the compound was adjusted to range from 100 μM to 1.5625 μM. […] Data were collected over the entire time course and analyzed using Excel and the curve-fitting formula GraphPad Prism.

[3] = target: T1, human TRPV1; experiment: Human TRPV1 heat-based assay, hTRPV1/CHO cells (hHeat-CHO); format: cell-based; conditions: temperature ramp 25 to 45 °C, mean ± SEM
Experimental: Human TRPV1 Heat-based Assay:
CHO cells stably expressing human TRPV1 (hTRPV1) were used. Functional assessment of heat-induced activation of hTRPV1 was carried out in a cell-based Ca^2+ flux assay using ABI7500 Fast Real-Time PCR System as described in Reubish et al., “Functional assessment of temperature-gated ion-channel activity using a real-time PCR machine,” www.BioTechniques.com 47(3):iii-ix (2009), which is hereby incorporated by reference. Briefly, hTRPV1/CHO cells were cultured in growth media in a tissue culture dish at 37° C. in a CO2 incubator. On the day of the assay, culture media were removed and the cells were then detached using 0.05% trypsin at 37° C. with 5% CO2, for 90 s. The detached cells were centrifuged (1000 rpm, 4 min) to remove trypsin-containing supernatant and resuspended in assay buffer (115 mM NaCl, 5.4 mM KCl, 0.8 mM MgCl2.6H2O, 1.8 mM CaCl2.2H2O, 13.8 mM D-glucose, and 20 mM HEPES). Then, the cells were loaded with 5 μM Fluo-4, a Ca^2+ reporter dye, in the presence of 2.5 mM probenecid at 37° C. with 5% CO2, for 45 min. Thereafter, the cells were washed twice with measuring buffer (assay buffer supplemented with 0.1% BSA and 3.2 mM CaCl2) then transferred to a Fast 96-well Reaction Plate (0.1 mL) (Part no. 4346907, MICROAMP, Applied Biosystems, Foster City, Calif.). The cell density was 100,000 cells/24 μL/well. A solution of the compound under test (6 μL/well) was added into each well of the 96-well plate. Thus, the reaction volume per well was 30 μL.
The plates were then placed inside an ABI7500 Fast Real-Time PCR instrument (Applied Biosystems) to read fluorescence at different temperatures using 7500 software, version 2.0.2 (Applied Biosystems). The initial temperature was set at 25° C. for 1 min. followed by a temperature ramp to 45° C. in 100 s to deliver heat to cells. [Ca^2+], response of hTRPV1/CHO cells to heat was determined as: [fluorescence read at 45° C.−fluorescence read at 25° C.].
Compound concentration response curves and IC50 values were analyzed using GraphPad Prism 4 software (GraphPad Software, La Jolla, Calif.).
The IC50 data provided in Table 6 are shown as mean±standard error of the mean; the number of trials conducted for each assay is shown in parentheses except for only a single trial where no number of trials is shown in parentheses.

[4] = In vivo assay of body temperature increase (rectal body temperature); parameters: species or system rat; conditions: rats, oral, 10 mL/kg of 1 mg/mL in 0.5% methylcellulose; greatest ΔTb versus vehicle control at 0.5, 1 or 2 hrs
Excerpt: Hyperthermia or undesirable elevation in animal body temperature is known to be an undesirable side-effect accompanying the administration of certain TRPV1 antagonists (Gavva, “Body-temperature maintenance as the predominant function of the vanilloid receptor TRPV1,” Trends Pharmacol. Sci. 29(11):550-557 (2008)).
Test Animals: Selection of rats (Crl/SD rats, 7 weeks, male) was based on rectal body temperature measured during the morning of the day of dosing as described below. In addition, to minimize spontaneous, stress-induced increases in body temperature, rats were acclimated in advance to both the rectal measurement procedure and to being handled and dosed. All lodging and testing took place in animal care laboratories with constant room temperature and humidity. The rats were free to move and ingest food and water throughout. Each rat was coded with a colored line on the tail, housed in a separate cage, and permitted the normal range of movement. Immediately before each body temperature measurement, a rat was transferred to a measurement cage. To reduce stress which could influence its body temperature, each rat was covered with towels during the measurement. A thermistor probe was then carefully inserted into the rectum of each rat and left in place until the temperature reading on the digital display had stabilized; this value was recorded.
Assay: On the day before dosing, rectal body temperature was measured at 9:00, 10:00, 11:00, 12:30, 13:30, 14:30, and 15:30 o'clock to familiarize the rats with the measurement procedure prior to administration of the test or control treatments. The rats were also dosed by oral gavage without vehicle at 12:30 o'clock to acclimate and familiarize them with the handling and dosing procedure.
On the day of dosing, only rats with rectal body temperatures within the range of from 37.0° C. to 37.7° C. were selected for study. Rectal body temperatures were measured at 9:00, 10:00, and 11:00 o'clock. Rats were excluded from the study if either their rectal body temperature was over 37.9° C. at 10:00 o'clock or was outside the range of from 37.0° C. to 37.7° C. at 11:00 o'clock. The selected rats were divided into several groups based on their rectal body temperatures at 11:00 o'clock. Rectal body temperatures of the selected rats were measured again at 12:30 o'clock and any rat with a rectal body temperature of 38.0° C. or greater was also excluded from the study.
Following assignment to either a test or control group, a test compound or a control was administered to the rats. Each test compound was dissolved in a vehicle of 0.5% aqueous methylcellulose solution and the final concentration of the test compound was adjusted to 1 mg/mL. Each test compound was orally administered once at a dose of 10 mL/kg. The same volume of the control (vehicle only) was administered once to the control group. Rectal body temperatures were measured at the following time points: 0.5, 1, and 2 hrs after administration.
The body temperature increase (ΔTb) for each test compound was calculated by subtracting, at each time point, the average temperature of the control group from the average temperature of the group administered that test compound. The greatest ΔTb obtained for each test compound at any of the time points is shown in Table 11 below, along with the ΔTb of the control.

[5] = target: T1, human TRPV1; experiment: pH-based assay, Protocol 2, TRPV1/CHO cells (hpH-CHO), Fura-2 Ca2+ influx; format: cell-based; conditions: pH 5.0-5.1 (H2SO4), mean ± SEM
Experimental: For Protocol 2, a Chinese Hamster Ovary cell line (CHO) that has been engineered to constitutively express human recombinant TRPV1 was used (TRPV1/CHO cells). The TRPV1/CHO cell line was generated as described below.
TRPV1/CHO cells were seeded in the 96-well clear-bottom black-wall plate (Nunc) at densities of 1-2×10^4 cells/well and grown in 100 μL of culture medium (alpha-MEM supplemented with 10% FBS, 20 mM HEPES, 1 mg/mL geneticin and 1% antibiotic-antimycotic mixed stock solution) for 1-2 days before the experiment.
(1) Culture medium was removed using an 8-channel-pipette (Rainin, USA) from the 96-well plate and the wells were refilled with 100 μL of loading buffer (20 mM HEPES, 115 mM NaCl, 5.4 mM KCl, 0.8 mM MgCl2, 1.8 mM CaCl2, 13.8 mM D-glucose, 2.5 mM probenecid, pH 7.4) containing 5 μM Fura-2 AM (Dojin, Japan).
(2) The 96-well plate was incubated at 37° C. for 45 min.
(3) The loading buffer was removed from each well. The cells were subsequently washed twice with 150 μL of measuring buffer (20 mM HEPES, 115 mM NaCl, 5.4 mM KCl, 0.8 mM MgCl2, 5.0 mM CaCl2, 13.8 mM D-glucose, 0.1% BSA, pH 7.4) (no probenecid). The wells were then refilled with 80 μL of measuring buffer.
(4) After an incubation at 4° C. for 15 min, the 96-well plate was transferred to a model FDSS-3000 plate reader apparatus (Hamamatsu Photonics K.K., Japan).
(5) The Fura-2 fluorescent intensity was monitored at a wavelength of 340 nm and at 380 nm, respectively, at a rate of 0.5 Hz for a total of 240 seconds. After 16 time points (32 sec) of baseline detection, 20 μL of agonist solution was added to each well. The final volume was 100 μL/well.
(6) Fluorescence intensity ratio refers to the fluorescence intensity at 340 nm over the fluorescence intensity at 380 nm at a particular time point. The baseline was set as the average of the fluorescent intensity ratios for the first 16 time points before the addition of agonist solution. The maximum response was the highest fluorescent intensity ratio during the 60 time points following addition of agonist solution.
(7) Maximal signal ratios from each well were calculated as output data using the FDSS-3000 analysis program. Data were analyzed using Excel (Microsoft) and XLfit (idbs) software.
In an “agonist plate,” two different agonist solutions with different H2SO4 concentrations were used for the pH assay (see, e.g., FIG. 3A of U.S. Patent Application Publication No. US 2009/0170868 A1). For the first half of a 96-well plate one agonist solution was used; for the second half the other agonist solution was used. The agonist solutions were obtained by diluting sulfuric acid (1M H2SO4) with measuring buffer. The concentrations for the two agonist solutions were determined as described above in Section 2 of Protocol 2.
The sulfuric acid concentrations between the two agonist solutions differed by 0.5 mM. In the experiment described in Section 2 of Protocol 2, the sulfuric acid concentrations in the agonist solutions were determined to be 16 mM and 16.5 mM, respectively. After 1:4 dilution of the agonist solutions, the final sulfuric acid concentration was 3.2 mM and 3.3 mM, respectively. The resulting pH value for the pH assay was 5.0 to 5.1.
Test compounds were dissolved in DMSO to yield 1 mM stock solutions. The stock solutions were further diluted using DMSO in […] serial dilution steps with 6 points (1000, 250, 62.5, 15.625, 3.9062, and 0.977 μM). The thereby-obtained solutions were further diluted in measuring buffer (1:100) as 10× stock serial dilutions with a DMSO concentration of 1%. 10 μL of a 10× stock was added into each well of an “antagonist plate” (see step 3.3.(4) below). Thus, the final concentrations of antagonists was as follows: 0.977, 3.906, 15.63, 62.5, 250, and 1000 nM containing 0.1% DMSO (see, e.g., FIG. 3B of U.S. Patent Application Publication No. US 2009/0170868 A1).
Steps (1) and (2) of this Assay were the same as steps 2.2.(1) and 2.2.(2), respectively, of Protocol 2. […]

T1 sequence (Q8NER1 whole entry, looked up, the tested form may be a part): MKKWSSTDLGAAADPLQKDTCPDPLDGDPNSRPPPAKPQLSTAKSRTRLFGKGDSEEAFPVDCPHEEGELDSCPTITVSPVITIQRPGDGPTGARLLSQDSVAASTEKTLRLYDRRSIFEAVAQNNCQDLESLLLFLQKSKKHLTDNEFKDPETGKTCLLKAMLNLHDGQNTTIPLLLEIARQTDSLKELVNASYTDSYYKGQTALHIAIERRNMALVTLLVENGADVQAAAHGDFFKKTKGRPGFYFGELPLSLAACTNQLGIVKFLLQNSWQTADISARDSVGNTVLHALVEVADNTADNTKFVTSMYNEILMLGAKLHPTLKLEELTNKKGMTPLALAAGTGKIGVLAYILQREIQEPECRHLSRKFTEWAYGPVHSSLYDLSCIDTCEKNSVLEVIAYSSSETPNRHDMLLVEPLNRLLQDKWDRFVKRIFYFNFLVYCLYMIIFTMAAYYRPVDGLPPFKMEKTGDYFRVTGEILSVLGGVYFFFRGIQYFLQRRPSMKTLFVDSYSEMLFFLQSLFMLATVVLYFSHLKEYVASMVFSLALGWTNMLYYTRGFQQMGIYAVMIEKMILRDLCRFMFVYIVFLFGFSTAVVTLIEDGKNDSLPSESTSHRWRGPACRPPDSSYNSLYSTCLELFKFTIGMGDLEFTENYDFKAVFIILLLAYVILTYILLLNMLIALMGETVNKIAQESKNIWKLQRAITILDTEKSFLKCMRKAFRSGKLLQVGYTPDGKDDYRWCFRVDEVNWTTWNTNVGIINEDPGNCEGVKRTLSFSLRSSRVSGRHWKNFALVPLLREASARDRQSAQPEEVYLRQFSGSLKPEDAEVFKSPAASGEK

| SMILES | solubility ([1]; pH 1.2, simulated gastric fluid, read-out: aqueous solubility at pH 1.2) [µM] | solubility ([1]; pH 6.8, aqueous buffer, read-out: aqueous solubility at pH 6.8) [µM] | IC50 [2] [nM] | IC50 [3] [nM] | ΔTb, body temperature increase [4] [°C] | IC50 [5] [nM] |
| --- | --- | --- | --- | --- | --- | --- |
| C[C@H]1CN(c2ncc([C@H](O)CO)cc2F)CCN1C(=O)Nc1nc2cc(F)ccc2s1 [A155(a), (S)-4-{5-[(S)-1,2-Dihydroxyethyl]-3-fluoropyridin-2-yl}-N-(5-fluorobenzo[d]thiazol-2-yl)-2-methylpiperazine-1-carboxamide] | > 50 | 17 (≈ 7.64 µg/mL) | 96 ± 18 | 700 | 0.2 |  |
| C[C@H](O)[C@@H](O)c1cnc(N2CCN(C(=O)Nc3nc4cc(F)ccc4s3)C[C@H]2C)c(F)c1 [B155(j), (R)-4-{5-[(1S,2S)-1,2-dihydroxypropyl]-3-fluoropyridin-2-yl}-N-(5-fluorobenzo[d]thiazol-2-yl)-3-methylpiperazine-1-carboxamide] |  |  | 344 ± 116 |  |  | 439 ± 71 |
| C[C@@H]1CN(C(=O)Nc2nc3cc(F)ccc3s2)CCN1c1ncc([C@@H](O)[C@@H](C)O)cc1F [B155(o), (R)-4-{5-[(1R,2R)-1,2-dihydroxypropyl]-3-fluoropyridin-2-yl}-N-(5-fluorobenzo[d]thiazol-2-yl)-3-methylpiperazine-1-carboxamide] |  |  | 249 ± 34 |  |  | 1230 ± 595 |
| C[C@@H]1CN(C(=O)Nc2nc3cc(F)c(F)cc3s2)CCN1c1ncc([C@@H](O)[C@@H](C)O)cc1F [B158(o), (R)—N-(5,6-difluorobenzo[d]thiazol-2-yl)-4-{5-[(1R,2R)-1,2-dihydroxypropyl]-3-fluoropyridin-2-yl}-3-methylpiperazine-1-carboxamide] |  |  | 146 ± 52 |  |  | 171 ± 29 |
| C[C@H](O)[C@@H](O)c1cnc(N2CCN(C(=O)Nc3nc4ccc(F)cc4s3)[C@@H](C)C2)c(F)c1 [BB, (S)-4-{5-[(1S,2S)-1,2-dihydroxypropyl]-3-fluoropyridin-2-yl}-N-(6-fluorobenzo[d]thiazol-2-yl)-2-methylpiperazine-1-carboxamide] |  |  | 63.7 ± 13.4 | 490 | 0.5 |  |
